# Data: BindingDB's records for patent US20250263370 (Tay Therapeutics, 2025)
# Legend:
# [1] = target: Bromodomain-containing protein 4 [58-164] (Homo sapiens, UniProt O60885); experiment: Biological Activity Primary Activity Assay
# Method: (§1) 90 μL per well of cell suspension without tracer was also dispensed into at least 3 wells as “No tracer control samples” for background correction. Serially diluted test compounds were prepared at 1000× concentration in DMSO and further diluted to 10× concentration in Opti-MEM. […] Plates were then incubated at 37° C. +5% 002 incubator for 2 hours.
# [2] = target: T1, Bromodomain-containing protein 4 [348-457] (Human, UniProt O60885); experiment: Biological Activity Primary Activity Assay
# T1 construct: 348-457
# Method: as §1
Structure (SMILES),IC50 [1],IC50 [2]
"CNC(=O)c1c(OC(C)c2ccc3c(c2)COC3)cc(C(N)=O)n1C (centres undefined) [US20250263370, Example 15]",> 10 µM,in the range around 0.6 µM
"CCNC(=O)c1[nH]c(C(=O)NC)c([C@H](C)c2ccccc2F)c1C [US20250263370, Example 74]",> 10 µM,in the range around 5.5 µM
